# Test results from patent US5168100A, “HP530 compounds and process for preparing the same” (Sapporo Breweries Limited, priority 1990, dated 1992).
# Tested on: Staphylococcus epidermidis JCM2414
# Assay: Antimicrobial activity (MIC), Staphylococcus epidermidis
# Format: cell-based
# Details: not given
# Text: (§1) The minimum inhibitory concentrations (MIC's) of the HP530 compounds and their derivatives of the invention against bacteria and fungi are shown in Table 2.
row,SMILES,MIC
1,CC=CC1OC1(C)c1cc(=O)c2c(C)cc3c(c2o1)C(=O)c1c(ccc(C2CC(C)(N(C)C)C(OC(C)=O)C(C)O2)c1O)C3=O (stereo not drawn) [HP530D],3.2 µg/mL
2,CC(=O)OC1C(C)OC(c2ccc3c(c2O)C(=O)c2c(cc(C)c4c(=O)cc(C5(C)OC5C)oc24)C3=O)CC1(C)N(C)C (stereo not drawn) [HP530E],> 100 µg/mL

# Tested on: Xanthomonas maltophilia JCM1975
# Assay: Antimicrobial activity (MIC), Xanthomonas maltophilia
# Format: cell-based
# Details: Stenotrophomonas maltophilia
# Text: as §1
row,SMILES,MIC
1,CC=CC1OC1(C)c1cc(=O)c2c(C)cc3c(c2o1)C(=O)c1c(ccc(C2CC(C)(N(C)C)C(OC(C)=O)C(C)O2)c1O)C3=O (stereo not drawn) [HP530D],3.2 µg/mL
2,CC(=O)OC1C(C)OC(c2ccc3c(c2O)C(=O)c2c(cc(C)c4c(=O)cc(C5(C)OC5C)oc24)C3=O)CC1(C)N(C)C (stereo not drawn) [HP530E],> 100 µg/mL

# Tested on: Bacillus subtilis H17Rec^+
# Assay: Antimicrobial activity (MIC), Bacillus subtilis H17Rec^+
# Format: cell-based
# Details: not given
# Text: as §1
row,SMILES,MIC
1,CC=CC1OC1(C)c1cc(=O)c2c(C)cc3c(c2o1)C(=O)c1c(ccc(C2CC(C)(N(C)C)C(OC(C)=O)C(C)O2)c1O)C3=O (stereo not drawn) [HP530D],3.2 µg/mL
2,CC(=O)OC1C(C)OC(c2ccc3c(c2O)C(=O)c2c(cc(C)c4c(=O)cc(C5(C)OC5C)oc24)C3=O)CC1(C)N(C)C (stereo not drawn) [HP530E],12.5 µg/mL

# Tested on: Klebsiella pneumoniae JCM1662
# Assay: Antimicrobial activity (MIC), Klebsiella pneumoniae
# Format: cell-based
# Details: not given
# Text: as §1
row,SMILES,MIC
1,CC=CC1OC1(C)c1cc(=O)c2c(C)cc3c(c2o1)C(=O)c1c(ccc(C2CC(C)(N(C)C)C(OC(C)=O)C(C)O2)c1O)C3=O (stereo not drawn) [HP530D],> 100 µg/mL
2,CC(=O)OC1C(C)OC(c2ccc3c(c2O)C(=O)c2c(cc(C)c4c(=O)cc(C5(C)OC5C)oc24)C3=O)CC1(C)N(C)C (stereo not drawn) [HP530E],> 100 µg/mL

# Tested on: Escherichia coli JCM1649
# Assay: Antimicrobial activity (MIC), Escherichia coli
# Format: cell-based
# Details: not given
# Text: as §1
row,SMILES,MIC
1,CC=CC1OC1(C)c1cc(=O)c2c(C)cc3c(c2o1)C(=O)c1c(ccc(C2CC(C)(N(C)C)C(OC(C)=O)C(C)O2)c1O)C3=O (stereo not drawn) [HP530D],> 100 µg/mL
2,CC(=O)OC1C(C)OC(c2ccc3c(c2O)C(=O)c2c(cc(C)c4c(=O)cc(C5(C)OC5C)oc24)C3=O)CC1(C)N(C)C (stereo not drawn) [HP530E],> 100 µg/mL

# Tested on: Micrococcus luteus JCM1464
# Assay: Antimicrobial activity (MIC), Micrococcus luteus
# Format: cell-based
# Details: not given
# Text: as §1
row,SMILES,MIC
1,CC=CC1OC1(C)c1cc(=O)c2c(C)cc3c(c2o1)C(=O)c1c(ccc(C2CC(C)(N(C)C)C(OC(C)=O)C(C)O2)c1O)C3=O (stereo not drawn) [HP530D],1.6 µg/mL
2,CC(=O)OC1C(C)OC(c2ccc3c(c2O)C(=O)c2c(cc(C)c4c(=O)cc(C5(C)OC5C)oc24)C3=O)CC1(C)N(C)C (stereo not drawn) [HP530E],0.8 µg/mL

# Tested on: Staphylococcus aureus JCM2151
# Assay: Antimicrobial activity (MIC), Staphylococcus aureus
# Format: cell-based
# Details: not given
# Text: as §1
row,SMILES,MIC
1,CC=CC1OC1(C)c1cc(=O)c2c(C)cc3c(c2o1)C(=O)c1c(ccc(C2CC(C)(N(C)C)C(OC(C)=O)C(C)O2)c1O)C3=O (stereo not drawn) [HP530D],1.6 µg/mL
2,CC(=O)OC1C(C)OC(c2ccc3c(c2O)C(=O)c2c(cc(C)c4c(=O)cc(C5(C)OC5C)oc24)C3=O)CC1(C)N(C)C (stereo not drawn) [HP530E],6.3 µg/mL

# Tested on: Saccharomyces cerevisiae JCM1499
# Assay: Antimicrobial activity (MIC), Saccharomyces cerevisiae
# Format: cell-based
# Details: not given
# Text: as §1
row,SMILES,MIC
1,CC=CC1OC1(C)c1cc(=O)c2c(C)cc3c(c2o1)C(=O)c1c(ccc(C2CC(C)(N(C)C)C(OC(C)=O)C(C)O2)c1O)C3=O (stereo not drawn) [HP530D],6.3 µg/mL
2,CC(=O)OC1C(C)OC(c2ccc3c(c2O)C(=O)c2c(cc(C)c4c(=O)cc(C5(C)OC5C)oc24)C3=O)CC1(C)N(C)C (stereo not drawn) [HP530E],> 100 µg/mL

# Tested on: mouse fibrosarcoma Meth-A cell line
# Assay: Antitumor activity, increase in life span of CDF1 mice inoculated with Meth-A cells
# Format: in vivo
# Details: 0.25 mg/kg i.p. once a day, day 1-4
# Text: 1) CDF1 mice were inoculated intraperitoneally with 1×10^6 cells of mouse fibrosarcoma Meth-A cell line on day 0. HP530 compounds and their derivatives dissolved in a physiological salt solution were administrated intraperitoneally once a day on day 1-4. Increase in life span is represented by the percentage of the ratio of the mean number of surviving days (T) of the treated groups of mice to the mean number of surviving days (C) of the untreated groups of mice.
row,SMILES,Antitumor Activity T/C
1,CC=CC1OC1(C)c1cc(=O)c2c(C)cc3c(c2o1)C(=O)c1c(ccc(C2CC(C)(N(C)C)C(OC(C)=O)C(C)O2)c1O)C3=O (stereo not drawn) [HP530D],108%

# Same assay, conditions: 0.5 mg/kg i.p. once a day, day 1-4
row,SMILES,Antitumor Activity T/C
1,CC=CC1OC1(C)c1cc(=O)c2c(C)cc3c(c2o1)C(=O)c1c(ccc(C2CC(C)(N(C)C)C(OC(C)=O)C(C)O2)c1O)C3=O (stereo not drawn) [HP530D],123%

# Same assay, conditions: 1.0 mg/kg i.p. once a day, day 1-4
row,SMILES,Antitumor Activity T/C
1,CC=CC1OC1(C)c1cc(=O)c2c(C)cc3c(c2o1)C(=O)c1c(ccc(C2CC(C)(N(C)C)C(OC(C)=O)C(C)O2)c1O)C3=O (stereo not drawn) [HP530D],192%

# Same assay, conditions: 2.0 mg/kg i.p. once a day, day 1-4
row,SMILES,Antitumor Activity T/C
1,CC=CC1OC1(C)c1cc(=O)c2c(C)cc3c(c2o1)C(=O)c1c(ccc(C2CC(C)(N(C)C)C(OC(C)=O)C(C)O2)c1O)C3=O (stereo not drawn) [HP530D],> 215%

# Same assay, conditions: 2.5 mg/kg i.p. once a day, day 1-4
row,SMILES,Antitumor Activity T/C
1,CC(=O)OC1C(C)OC(c2ccc3c(c2O)C(=O)c2c(cc(C)c4c(=O)cc(C5(C)OC5C)oc24)C3=O)CC1(C)N(C)C (stereo not drawn) [HP530E],104%

# Same assay, conditions: 5.0 mg/kg i.p. once a day, day 1-4
row,SMILES,Antitumor Activity T/C
1,CC(=O)OC1C(C)OC(c2ccc3c(c2O)C(=O)c2c(cc(C)c4c(=O)cc(C5(C)OC5C)oc24)C3=O)CC1(C)N(C)C (stereo not drawn) [HP530E],127%

# Same assay, conditions: 10.0 mg/kg i.p. once a day, day 1-4
row,SMILES,Antitumor Activity T/C
1,CC(=O)OC1C(C)OC(c2ccc3c(c2O)C(=O)c2c(cc(C)c4c(=O)cc(C5(C)OC5C)oc24)C3=O)CC1(C)N(C)C (stereo not drawn) [HP530E],> 196%

# Same assay, conditions: 20.0 mg/kg i.p. once a day, day 1-4
row,SMILES,Antitumor Activity T/C
1,CC(=O)OC1C(C)OC(c2ccc3c(c2O)C(=O)c2c(cc(C)c4c(=O)cc(C5(C)OC5C)oc24)C3=O)CC1(C)N(C)C (stereo not drawn) [HP530E],> 192%

# Tested on: Salmonella typhimurium TA1535
# Assay: Antimicrobial activity (MIC), Salmonella typhimurium
# Format: cell-based
# Details: Salmonella enterica
# Text: as §1
row,SMILES,MIC
1,CC=CC1OC1(C)c1cc(=O)c2c(C)cc3c(c2o1)C(=O)c1c(ccc(C2CC(C)(N(C)C)C(OC(C)=O)C(C)O2)c1O)C3=O (stereo not drawn) [HP530D],1.6 µg/mL
2,CC(=O)OC1C(C)OC(c2ccc3c(c2O)C(=O)c2c(cc(C)c4c(=O)cc(C5(C)OC5C)oc24)C3=O)CC1(C)N(C)C (stereo not drawn) [HP530E],0.8 µg/mL

# Tested on: CDF1 mice
# Assay: Acute toxicity in CDF1 mice
# Format: in vivo, mouse
# Details: 10 mg/kg, intraperitoneal, three CDF1 mice
row,SMILES,Acute toxicity
1,CC=CC1OC1(C)c1cc(=O)c2c(C)cc3c(c2o1)C(=O)c1c(ccc(C2CC(C)(N(C)C)C(OC(C)=O)C(C)O2)c1O)C3=O (stereo not drawn) [HP530D],no toxicity

# Same assay, conditions: 20 mg/kg, intraperitoneal, three CDF1 mice
row,SMILES,Acute toxicity
1,CC(=O)OC1C(C)OC(c2ccc3c(c2O)C(=O)c2c(cc(C)c4c(=O)cc(C5(C)OC5C)oc24)C3=O)CC1(C)N(C)C (stereo not drawn) [HP530E],no toxicity

# Tested on: Proteus vulgaris JCM1668
# Assay: Antimicrobial activity (MIC), Proteus vulgaris
# Format: cell-based
# Details: not given
# Text: as §1
row,SMILES,MIC
1,CC=CC1OC1(C)c1cc(=O)c2c(C)cc3c(c2o1)C(=O)c1c(ccc(C2CC(C)(N(C)C)C(OC(C)=O)C(C)O2)c1O)C3=O (stereo not drawn) [HP530D],> 100 µg/mL
2,CC(=O)OC1C(C)OC(c2ccc3c(c2O)C(=O)c2c(cc(C)c4c(=O)cc(C5(C)OC5C)oc24)C3=O)CC1(C)N(C)C (stereo not drawn) [HP530E],> 100 µg/mL

# Tested on: Candida albicans JCM1542
# Assay: Antimicrobial activity (MIC), Candida albicans
# Format: cell-based
# Details: not given
# Text: as §1
row,SMILES,MIC
1,CC=CC1OC1(C)c1cc(=O)c2c(C)cc3c(c2o1)C(=O)c1c(ccc(C2CC(C)(N(C)C)C(OC(C)=O)C(C)O2)c1O)C3=O (stereo not drawn) [HP530D],100 µg/mL
2,CC(=O)OC1C(C)OC(c2ccc3c(c2O)C(=O)c2c(cc(C)c4c(=O)cc(C5(C)OC5C)oc24)C3=O)CC1(C)N(C)C (stereo not drawn) [HP530E],> 100 µg/mL

# Tested on: not listed separately
# Assay: Solubility
# Details: ethyl acetate, acetone, n-hexane
row,SMILES,Solubility
1,CC=CC1OC1(C)c1cc(=O)c2c(C)cc3c(c2o1)C(=O)c1c(ccc(C2CC(C)(N(C)C)C(OC(C)=O)C(C)O2)c1O)C3=O (stereo not drawn) [HP530D],"hardly soluble in ethyl acetate, acetone and n-hexane"
2,CC(=O)OC1C(C)OC(c2ccc3c(c2O)C(=O)c2c(cc(C)c4c(=O)cc(C5(C)OC5C)oc24)C3=O)CC1(C)N(C)C (stereo not drawn) [HP530E],"hardly soluble in ethyl acetate, acetone and n-hexane"

# Same assay, conditions: solvents in which soluble (acidic water, organic solvents)
row,SMILES,Solubility
1,CC=CC1OC1(C)c1cc(=O)c2c(C)cc3c(c2o1)C(=O)c1c(ccc(C2CC(C)(N(C)C)C(OC(C)=O)C(C)O2)c1O)C3=O (stereo not drawn) [HP530D],"Soluble in acidic water, methanol and chloroform"
2,CC(=O)OC1C(C)OC(c2ccc3c(c2O)C(=O)c2c(cc(C)c4c(=O)cc(C5(C)OC5C)oc24)C3=O)CC1(C)N(C)C (stereo not drawn) [HP530E],"Soluble in acidic water, methanol, chloroform and benzene"

# Same assay, conditions: water
row,SMILES,Solubility
1,CC=CC1OC1(C)c1cc(=O)c2c(C)cc3c(c2o1)C(=O)c1c(ccc(C2CC(C)(N(C)C)C(OC(C)=O)C(C)O2)c1O)C3=O (stereo not drawn) [HP530D],insoluble in water
2,CC(=O)OC1C(C)OC(c2ccc3c(c2O)C(=O)c2c(cc(C)c4c(=O)cc(C5(C)OC5C)oc24)C3=O)CC1(C)N(C)C (stereo not drawn) [HP530E],insoluble in water

# Tested on: W98 cell line
# Assay: Cytotoxicity (IC100) against W98 cell line
# Format: cell-based
# Details: Homo sapiens; W98 cells, final 10% methanol solutions; read-out: IC100 (100% growth inhibiting concentration)
# Protocol: 2) Cytotoxicity (IC100) against W98 cell line obtained by converting the lung cells of a human emryo by an SV40 virus was examined in the following way. When the HP530 compounds and their derivatives dissolved in methanol were added to culture solutions in such a manner that the culture solutions were prepared final 10% methanol solutions, the cytotoxicity of the HP530 compounds and their derivatives against the growth of the W98 cells in the culture solution was measured as 100% growth inhibiting concentration (IC100).
row,SMILES,IC100
1,CC=CC1OC1(C)c1cc(=O)c2c(C)cc3c(c2o1)C(=O)c1c(ccc(C2CC(C)(N(C)C)C(OC(C)=O)C(C)O2)c1O)C3=O (stereo not drawn) [HP530D],0.0006 µg/mL
2,CC(=O)OC1C(C)OC(c2ccc3c(c2O)C(=O)c2c(cc(C)c4c(=O)cc(C5(C)OC5C)oc24)C3=O)CC1(C)N(C)C (stereo not drawn) [HP530E],0.0006 µg/mL

# Tested on: Bacillus subtilis M45Rec^-
# Assay: Antimicrobial activity (MIC), Bacillus subtilis M45Rec^-
# Format: cell-based
# Details: not given
# Text: as §1
row,SMILES,MIC
1,CC=CC1OC1(C)c1cc(=O)c2c(C)cc3c(c2o1)C(=O)c1c(ccc(C2CC(C)(N(C)C)C(OC(C)=O)C(C)O2)c1O)C3=O (stereo not drawn) [HP530D],0.4 µg/mL
2,CC(=O)OC1C(C)OC(c2ccc3c(c2O)C(=O)c2c(cc(C)c4c(=O)cc(C5(C)OC5C)oc24)C3=O)CC1(C)N(C)C (stereo not drawn) [HP530E],0.2 µg/mL
